# In patent publication US10428081B2, “EGFR inhibitor, preparation method and use thereof” (Shanghai Hansoh Biomedical Co., Ltd., priority 2014, dated 2019):
# Experiments:
# A431 cells = assay: Inhibition of A431 cell proliferation (CellTiter-Glo); type: cell-based; settings: Homo sapiens, A-431, 72 h, read-out: EGFR IC50 (nM) A431
# Procedure: 4. Experiment on the Inhibition of A431 Cell Proliferation
# In this experiment, the inhibitory effect of the compounds on A431 cell proliferation was tested by a CellTiter-Glo method, and the half maximal inhibitory concentration (IC50) of the compounds on the activity of cell proliferation was determined.
# The culture plate was incubated in the incubator for 16 to 24 hours (37° C., 5% CO2).
# (§1) 2) Different concentrations of the test compound in a gradient dilution were added to the cells in the culture plate. The culture plate was incubated in an incubator for 72 hours (37° C., 5% CO2).
# 3) 50 to 100 μL of CellTiter-Glo reagent was added to each well. Then the culture plate was shaken for 10 minutes, and left to stand at room temperature for 10 minutes.
# (§2) 4) The chemiluminescence signal values of each plate were determined by a microplate reader.
# 5) The inhibition rates were calculated according to the chemiluminescence signal values. 6) The IC50 of the compound was obtained by curve fitting according to the inhibition rates at different concentrations.
# wild-type EGFR enzyme = wild-type EGFR enzyme (Homo sapiens, UniProt P00533); assay: Enzymologic experiment of wild-type (WT) EGFR (TR-FRET); type: biochemical; settings: ATP 0.1 to 5 uM
# Procedure: 2. Enzymologic Experiment of Wild-Type (WT) EGFR
# In this experiment, the inhibitory effect of compounds on wild-type EGFR enzyme was tested by a fluorescence resonance energy transfer (TR-FRET) method, and the half maximal inhibitory concentration IC50 of the compounds on enzymatic activity was determined.
# 1) 1 to 5 μL of wild-type EGFR enzyme solution was added to a 384-well plate, and the final concentration of the enzyme was 0.1 to 1 nM.
# (§3) 2) 1 to 5 μL of diluted solution in gradient of the compound was added.
# (§4) 3) The mixture was incubated for 10 minutes at room temperature.
# (§5) 6) 5 μL of EDTA stop solution was added to terminate the reaction for 5 minutes.
# 7) 5 μL of a test solution containing the labeled antibody was added, and the mixture was incubated at room temperature for 1 hour.
# 9) The inhibition rates were calculated from the fluorescence signal values.
# (§6) 10) The IC50 of the compound was obtained by curve fitting according to the inhibition rates at different concentrations.
# NCI-H1975 cells = assay: Inhibition of NCI-H1975 cell proliferation (CellTiter-Glo); type: cell-based; settings: for IC50: Homo sapiens, NCI-H1975, 72 h, NCI-H1975 cell proliferation, 72 hours, CellTiter-Glo, read-out: EGFR IC50 (nM) H1975; for Selectivity of wild-type/mutant-type: ratio A431 IC50 / H1975 IC50, cells
# Procedure: 3. Experiment on the Inhibition of NCI-H1975 Cell Proliferation
# In this experiment, the inhibitory effect of the compounds on NCI-H1975 cell proliferation was tested by a CellTiter-Glo method, and the half maximal inhibitory concentration (IC50) of the compounds on the activity of cell proliferation was determined.
# The culture plate was incubated in an incubator for 16 to 24 hours (37° C., 5% CO2).
# as §1
# 3) 50 to 100 μL of CellTiter-Glo reagent was added to each well. Then, the culture plate was shaken for 10 minutes, and left to stand at room temperature for 10 minutes.
# as §2
# 5) The inhibition rates were calculated according to the chemiluminescence signal values.
# 6) The IC50 of the compound was obtained by curve fitting according to the inhibition rates at different concentrations.
# [1] = target: exon 20 T790M mutant-type EGFR enzyme (Homo sapiens, UniProt P00533, T790M); assay: Enzymologic experiment of T790M mutant-type EGFR (TR-FRET); type: biochemical; settings: for IC50: T790M EGFR enzyme, TR-FRET, ATP 1 to 10 uM; for Selectivity of wild-type/mutant-type: ratio WT IC50 / T790M IC50, enzyme
# Procedure: as §3, §4, §5
# 7) […] of a test solution containing the labeled antibody was added, and the mixture was incubated at room temperature for 1 hour.
# 9) The inhibition rates were calculated according to the fluorescence signal values.
# as §6
# exon 20 T790M mutant-type EGFR enzyme, sequence (P00533 25-1210 T790M): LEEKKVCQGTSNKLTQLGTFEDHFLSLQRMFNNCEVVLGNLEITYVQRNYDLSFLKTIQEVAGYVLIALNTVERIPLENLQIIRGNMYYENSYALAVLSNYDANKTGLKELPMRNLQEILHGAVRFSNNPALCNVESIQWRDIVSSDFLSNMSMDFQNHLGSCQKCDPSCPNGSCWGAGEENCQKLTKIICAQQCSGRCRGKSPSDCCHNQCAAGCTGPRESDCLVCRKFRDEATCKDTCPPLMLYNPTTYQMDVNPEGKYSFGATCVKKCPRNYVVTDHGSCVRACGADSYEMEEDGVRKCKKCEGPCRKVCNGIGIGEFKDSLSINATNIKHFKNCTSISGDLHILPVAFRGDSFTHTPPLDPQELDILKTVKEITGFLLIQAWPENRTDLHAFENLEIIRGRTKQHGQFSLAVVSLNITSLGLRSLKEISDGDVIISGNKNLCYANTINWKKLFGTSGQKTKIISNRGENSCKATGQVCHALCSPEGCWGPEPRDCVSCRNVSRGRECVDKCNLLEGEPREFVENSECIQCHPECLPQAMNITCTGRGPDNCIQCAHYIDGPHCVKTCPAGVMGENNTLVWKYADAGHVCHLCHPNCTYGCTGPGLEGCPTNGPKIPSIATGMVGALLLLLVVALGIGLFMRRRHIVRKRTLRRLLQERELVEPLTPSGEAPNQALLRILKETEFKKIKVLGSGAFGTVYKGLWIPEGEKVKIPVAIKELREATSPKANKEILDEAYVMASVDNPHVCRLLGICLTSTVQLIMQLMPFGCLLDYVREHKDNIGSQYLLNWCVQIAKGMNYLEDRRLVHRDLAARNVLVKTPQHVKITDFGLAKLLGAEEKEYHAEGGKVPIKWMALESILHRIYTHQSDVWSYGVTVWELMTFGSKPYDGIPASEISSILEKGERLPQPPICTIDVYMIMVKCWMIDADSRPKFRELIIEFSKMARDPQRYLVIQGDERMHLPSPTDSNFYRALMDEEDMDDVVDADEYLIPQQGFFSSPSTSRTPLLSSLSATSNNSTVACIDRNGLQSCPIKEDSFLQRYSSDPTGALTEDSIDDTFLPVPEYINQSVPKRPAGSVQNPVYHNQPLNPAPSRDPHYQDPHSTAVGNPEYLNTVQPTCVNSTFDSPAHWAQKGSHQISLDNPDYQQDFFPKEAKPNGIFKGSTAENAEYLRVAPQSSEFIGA
# wild-type EGFR enzyme, sequence (P00533 25-1210): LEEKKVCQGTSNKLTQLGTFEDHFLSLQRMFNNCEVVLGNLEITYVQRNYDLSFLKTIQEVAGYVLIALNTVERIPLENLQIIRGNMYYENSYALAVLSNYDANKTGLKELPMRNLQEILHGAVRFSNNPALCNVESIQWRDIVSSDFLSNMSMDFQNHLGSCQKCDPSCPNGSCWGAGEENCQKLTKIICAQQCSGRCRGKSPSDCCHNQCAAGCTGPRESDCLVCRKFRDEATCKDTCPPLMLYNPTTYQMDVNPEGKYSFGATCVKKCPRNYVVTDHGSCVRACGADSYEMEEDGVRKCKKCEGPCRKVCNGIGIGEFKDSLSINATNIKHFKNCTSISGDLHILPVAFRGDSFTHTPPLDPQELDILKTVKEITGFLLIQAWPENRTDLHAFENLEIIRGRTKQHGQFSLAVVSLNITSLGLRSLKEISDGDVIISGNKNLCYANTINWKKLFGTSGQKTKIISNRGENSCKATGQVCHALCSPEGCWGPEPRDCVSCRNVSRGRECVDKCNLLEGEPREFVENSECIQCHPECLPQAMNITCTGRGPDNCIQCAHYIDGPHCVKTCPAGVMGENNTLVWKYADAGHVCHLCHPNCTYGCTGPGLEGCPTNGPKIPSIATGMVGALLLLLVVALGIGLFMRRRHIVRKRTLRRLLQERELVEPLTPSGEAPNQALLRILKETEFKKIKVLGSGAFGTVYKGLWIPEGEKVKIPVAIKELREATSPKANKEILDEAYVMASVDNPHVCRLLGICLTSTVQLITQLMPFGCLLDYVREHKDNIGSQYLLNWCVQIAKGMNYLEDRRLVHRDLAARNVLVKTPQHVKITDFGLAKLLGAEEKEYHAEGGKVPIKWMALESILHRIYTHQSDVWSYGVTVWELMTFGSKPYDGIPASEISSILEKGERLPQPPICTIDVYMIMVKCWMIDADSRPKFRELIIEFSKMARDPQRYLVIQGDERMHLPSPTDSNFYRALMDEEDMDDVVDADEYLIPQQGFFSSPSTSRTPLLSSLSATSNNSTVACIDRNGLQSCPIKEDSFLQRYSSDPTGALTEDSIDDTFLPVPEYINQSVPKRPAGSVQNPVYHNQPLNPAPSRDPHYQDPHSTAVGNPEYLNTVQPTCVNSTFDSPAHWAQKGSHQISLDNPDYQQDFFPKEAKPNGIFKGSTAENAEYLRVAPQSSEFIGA
Compound,IC50 (A431 cells) [nM],IC50 (wild-type EGFR enzyme) [nM],IC50 (NCI-H1975 cells) [nM],Selectivity of wild-type/mutant-type (NCI-H1975 cells),IC50 [1] [nM],Selectivity of wild-type/mutant-type [1]
"C=CC(=O)Nc1cc(Nc2ncc(Cl)c(-n3ncc4cc(OC)ccc43)n2)c(OC)cc1N(C)CCN(C)C [Example 48, N-(5-((5-chloro-4-(5-methoxy-1H-indazol-1-yl)pyrimidin-2-yl)amino)-2-((2-(dimethylamino)ethyl)(methyl)amino)-4-methoxyphenyl)acrylamide]",102,2.52,1.75,58.06,0.24,10.5
"C=CC(=O)Nc1cc(Nc2ncc(Cl)c(-n3nc(C4CC4)c4cc(OC)ccc43)n2)c(OC)cc1N(C)CCN(C)C [Example 115, N-(5-((5-chloro-4-(3-cyclopropyl-5-methoxy-1H-indazol-1-yl)pyrimidin-2-yl)amino)-2-((2-(dimethylamino)ethyl)(methyl)amino)-4-methoxyphenyl)acrylamide]",101,3.94,4.98,20.34,0.37,10.65
"C=CC(=O)Nc1cc(Nc2nccc(-n3ncc4c(OC)cccc43)n2)c(OC)cc1N(C)CCN(C)C [Example 41, N-(2-((2-(dimethylamino)ethyl)(methyl)amino)-4-methoxy-5-((4-(4-methoxy-1H-indazol-1-yl)pyrimidin-2-yl)amino)phenyl)acrylamide]",138,2.5,5.93,23.36,0.51,4.90
"C=CC(=O)Nc1cc(Nc2nccc(-c3cn(C)c4c(C5CC5)cccc34)n2)c(OC)cc1N(C)CCN(C)C [Example 91, N-(5-((4-(7-cyclopropyl-1-methyl-1H-indol-3-yl)pyrimidin-2-yl)amino)-2-((2-(dimethylamino)ethyl)(methyl)amino)-4-methoxyphenyl)acrylamide]",558,14.7,25.9,21.49,2.25,6.54
"C#CCn1cc(-c2ccnc(Nc3cc(NC(=O)C=C)c(N(C)CCN(C)C)cc3OC)n2)c2ccccc21 [Example 140, N-(2-((2-(dimethylamino)ethyl)(methyl)amino)-4-methoxy-5-((4-(1-(prop-2-yn-1-yl)-1H-indol-3-yl)pyrimidin-2-yl)amino)phenyl)acrylamide]",576,8.56,2.66,216.69,0.58,14.76
"C=CC(=O)Nc1cc(Nc2ncc(Cl)c(-c3cn(C)c4cc(OC)ccc34)n2)c(OC)cc1N(C)CCN(C)C [Example 98, N-(5-((5-chloro-4-(6-methoxy-1-methyl-1H-indol-3-yl)pyrimidin-2-yl)amino)-2-((2-(dimethylamino)ethyl)(methyl)amino)-4-methoxyphenyl)acrylamide]",154,1,2.92,52.71,0.2,5.00
C=CC(=O)Nc1cc(Nc2ncc(C(F)(F)F)c(-n3nc(C)c4cc(OC)ccc43)n2)c(OC)cc1N(C)CCN(C)C [Example 107],98.3,28,2.76,35.61,0.76,36.84
"C=CC(=O)Nc1cc(Nc2nccc(-n3ncc4cc(OCCOC)ccc43)n2)c(OC)cc1N(C)CCN(C)C [Example 121, N-(2-((2-(dimethylamino)ethyl)(methyl)amino)-4-methoxy-5-((4-(5-(2-methoxyethoxy)-1H-indazol-1-yl)pyrimidin-2-yl)amino)phenyl)acrylamide]",348,3.5,2.09,166.41,0.4,8.75
"C=CC(=O)Nc1cc(Nc2nccc(-n3cnc4cc(OC)ccc43)n2)c(OC)cc1N(C)CCN1CCCC1 [Example 138, N-(4-methoxy-5-((4-(5-methoxy-1H-benzo[d]imidazol-1-yl)pyrimidin-2-yl)amino)-2-(methyl(2-(pyrrolidin-1-yl)ethyl)amino)phenyl)acrylamide]",408,4.92,3.37,121.22,0.5,9.84
"C=CC(=O)Nc1cc(Nc2nccc(-n3ncc4cc(OCC)ccc43)n2)c(OC)cc1N(C)CCN(C)C [Example 105, N-(2-((2-(dimethylamino)ethyl)(methyl)amino)-5-((4-(5-ethoxy-1H-indazol-1-yl)pyrimidin-2-yl)amino)-4-methoxyphenyl)acrylamide]",887,0.62,3.12,284.29,0.26,2.38
"C=CC(=O)Nc1cc(Nc2nccc(-n3ncc4ccc(OC)cc43)n2)c(OC)cc1N(C)CCN1CCCC1 [Example 136, N-(4-methoxy-5-((4-(6-methoxy-1H-indazol-1-yl)pyrimidin-2-yl)amino)-2-(methyl(2-(pyrrolidin-1-yl)ethyl)amino)phenyl)acrylamide]",336,4.33,11.2,30.04,0.78,5.55
"C#CCn1cc(-c2ccnc(Nc3cc(NC(=O)C=C)c(N(C)CCNC)cc3OC)n2)c2ccccc21 [Example 129, N-(4-methoxy-2-(methyl(2-(methylamino)ethyl)amino)-5-((4-(1-(prop-2-yn-1-yl)-1H-indol-3-yl)pyrimidin-2-yl)amino)phenyl)acrylamide]",690,13.7,6.22,110.93,1.01,13.58
"C=CC(=O)Nc1cc(Nc2nccc(-c3cn(S(=O)(=O)N(C)C)c4ccccc34)n2)c(OC)cc1N(C)CCN(CC)CC [Example 103, N-(2-((2-(diethylamino)ethyl)(methyl)amino)-5-((4-(1-(N,N-dimethylsulfamoyl)-1H-indol-3-yl)pyrimidin-2-yl)amino)-4-methoxyphenyl)acrylamide]",98.6,1.61,1.95,50.55,0.24,6.71
"C=CC(=O)Nc1cc(Nc2ncc(Cl)c(-n3ncc4cc(C#N)ccc43)n2)c(OC)cc1N(C)CCN(C)C [Example 51, N-(5-((5-chloro-4-(5-cyano-1H-indazol-1-yl)pyrimidin-2-yl)amino)-2-((2-(dimethylamino)ethyl)(methyl)amino)-4-methoxyphenyl)acrylamide]",394,14.5,5.06,77.94,0.53,27.56
"C=CC(=O)Nc1cc(Nc2nccc(-n3ncc4ccc(OC)cc43)n2)c(OC)cc1N(C)CCN(C)C [Example 42, N-(2-((2-(dimethylamino)ethyl)(methyl)amino)-4-methoxy-5-((4-(6-methoxy-1H-indazol-1-yl)pyrimidin-2-yl)amino)phenyl)acrylamide]",76.3,0.82,5,15.25,0.48,1.71
